# According to patent publication US11780845B2 (Relay Therapeutics, Inc., priority 2019, dated 2023):
# What was measured:
# [1] = biological target: FGFR2 (Homo sapiens (Human), UniProt P21802); assay: Biochemical FGFR2 Caliper assay
# [2] = test system: SNU-16; assay: Cell SNU-16 assay; assay type: cell-based; settings: Homo sapiens, SNU-16, SNU-16 cells
# Chain of FGFR2 (P21802 22-821): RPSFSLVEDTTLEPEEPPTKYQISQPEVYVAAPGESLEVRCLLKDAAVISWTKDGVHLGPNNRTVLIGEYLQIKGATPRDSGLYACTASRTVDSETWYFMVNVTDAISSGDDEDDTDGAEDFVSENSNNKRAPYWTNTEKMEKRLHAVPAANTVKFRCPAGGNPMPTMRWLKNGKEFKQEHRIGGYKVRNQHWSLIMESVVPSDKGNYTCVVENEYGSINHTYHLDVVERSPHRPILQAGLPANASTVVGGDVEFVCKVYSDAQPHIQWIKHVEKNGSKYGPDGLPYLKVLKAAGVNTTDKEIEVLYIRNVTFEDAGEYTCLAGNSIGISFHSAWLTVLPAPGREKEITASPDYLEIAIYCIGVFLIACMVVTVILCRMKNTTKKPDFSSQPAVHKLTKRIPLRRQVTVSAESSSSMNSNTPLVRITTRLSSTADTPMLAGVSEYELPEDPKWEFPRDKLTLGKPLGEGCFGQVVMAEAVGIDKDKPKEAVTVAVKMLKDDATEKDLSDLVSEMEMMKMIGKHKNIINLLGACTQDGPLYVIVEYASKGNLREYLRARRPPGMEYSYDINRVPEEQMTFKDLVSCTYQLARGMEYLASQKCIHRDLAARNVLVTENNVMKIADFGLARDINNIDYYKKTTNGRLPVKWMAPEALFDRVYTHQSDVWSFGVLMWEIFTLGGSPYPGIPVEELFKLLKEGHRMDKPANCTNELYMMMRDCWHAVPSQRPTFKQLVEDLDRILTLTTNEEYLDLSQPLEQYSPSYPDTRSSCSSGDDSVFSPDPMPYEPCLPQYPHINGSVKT
Structure (SMILES),IC50 [1] [nM],IC50 [2] [nM]
"C=C(C)C(=O)Nc1ccc(-c2c(C3=CC[C@@H](C(=O)N4CCC[C@H]4COC)CC3)c3c(N)ncnc3n2C)cc1 (single isomer, unassigned) [Example 981]",250 to 1000,250 to 1000
"C=C(C)C(=O)Nc1ccc(-c2c(C3=CC[C@H](C(=O)N4CCC[C@H]4COC)CC3)c3c(N)ncnc3n2C)cc1 (single isomer, unassigned) [Example 982]",1000 to 100000,250 to 1000
"C=C(C)C(=O)Nc1ccc(-c2c(C3=CC[C@@H](C(=O)N4CCc5ccccc54)CC3)c3c(N)ncnc3n2C)cc1 (single isomer, unassigned) [Example 985]",250 to 1000,250 to 1000
"C=C(C)C(=O)Nc1ccc(-c2c(C3=CC[C@H](C(=O)N4CCc5ccccc54)CC3)c3c(N)ncnc3n2C)cc1 (single isomer, unassigned) [Example 986]",250 to 1000,250 to 1000
"C=C(C)C(=O)Nc1ccc(-c2c(C3=CC[C@@]4(CC3)Cc3ccccc3C4=O)c3c(N)ncnc3n2C)cc1 (single isomer, unassigned) [Example 987]",1000 to 100000,1000 to 100000
"C=C(C)C(=O)Nc1ccc(-c2c(C3=CC[C@]4(CC3)Cc3ccccc3C4=O)c3c(N)ncnc3n2C)cc1 (single isomer, unassigned) [Example 988]",250 to 1000,≤ 100
"C=C(C)C(=O)Nc1ccc(-c2c(C3=CC[C@H](C(=O)N4CCCC45COC5)CC3)c3c(N)ncnc3n2C)c(C)c1 (single isomer, unassigned) [Example 1029]",1000 to 100000,250 to 1000
"C=CC(=O)N[C@H]1CCN(c2cccc(-c3c(-c4ccc(Oc5cccc(C)n5)cc4)c4c(N)ncnc4n3C)c2)C1 (single isomer, unassigned) [Example 1031]",< 100,100 to 250
"C=CC(=O)N[C@@H]1CCN(c2cccc(-c3c(-c4ccc(Oc5cccc(C)n5)cc4)c4c(N)ncnc4n3C)c2)C1 (single isomer, unassigned) [Example 1032]",250 to 1000,≤ 100
"C=C(C)C(=O)Nc1ccc(-c2c(C3=CC[C@@H](C(=O)N4CCCC45COC5)CC3)c3c(N)ncnc3n2C)c(C)c1 (single isomer, unassigned) [Example 1033]",< 100,≤ 100
"C=C(C)C(=O)Nc1ccc(-c2c(C3=CC[C@H](C(=O)N4CCCC4)CC3)c3c(N)ncnc3n2C)c(C)c1 (single isomer, unassigned) [Example 1034]",100 to 250,≤ 100
"C=C(C)C(=O)Nc1ccc(-c2c(C3=CC[C@@H](C(=O)N4CCCC4)CC3)c3c(N)ncnc3n2C)c(C)c1 (single isomer, unassigned) [Example 1035]",< 100,≤ 100
"CN(C)C/C=C/C(=O)Nc1ccc(-c2c(C3=CC[C@@H](C(=O)N4CCCC4)CC3)c3c(N)ncnc3n2C)cc1 (single isomer, unassigned) [Example 1036]",250 to 1000,≤ 100
"C=C(C)C(=O)Nc1ccc(-c2c(C3=CC[C@H](C(=O)N4CC[C@@H]5C[C@@H]54)CC3)c3c(N)ncnc3n2C)cc1 (single isomer, unassigned) [Example 1038]",< 100,≤ 100
"C=C(C)C(=O)Nc1ccc(-c2c(C3=CC[C@@H](C(=O)N4CC[C@H]5C[C@H]54)CC3)c3c(N)ncnc3n2C)cc1 (single isomer, unassigned) [Example 1039]",1000 to 100000,1000 to 100000
"CN(C)C/C=C/C(=O)Nc1ccc(-c2c(C3=CC[C@H](C(=O)N4CCCC4)CC3)c3c(N)ncnc3n2C)cc1 (single isomer, unassigned) [Example 1042]",< 100,≤ 100
"C=C(C)C(=O)Nc1ccc(-c2c(C3=CC[C@H](C(=O)N4CC[C@H]5C[C@H]54)CC3)c3c(N)ncnc3n2C)cc1 (single isomer, unassigned) [Example 1043]",< 100,≤ 100
"C=CC(=O)Nc1ccc(-c2c(C3=CC[C@@H](C(=O)N4CCCC4)CC3)c3c(N)ncnc3n2C)c(C)c1 (single isomer, unassigned) [Example 1102]",< 100,≤ 100
"C=CC(=O)Nc1ccc(-c2c(C3=CC[C@@H](C(=O)N4CCCC4)CC3)c3c(C)ncnc3n2C)c(C)c1 (single isomer, unassigned) [Example 1106]",< 100,≤ 100
"C=CC(=O)Nc1ccc(-c2c(C3=CC[C@H](C(=O)N4CCCC4)CC3)c3c(C)ncnc3n2C)cc1 (single isomer, unassigned) [Example 1107]",< 100,≤ 100
"C=C1CCN(c2ccc(-c3c(C4=CC[C@@H](C(=O)N5CCCC5)CC4)c4c(N)ncnc4n3C)cc2)C1=O (single isomer, unassigned) [Example 1134]",250 to 1000,100 to 250
"C=C1CCN(c2ccc(-c3c(C4=CC[C@H](C(=O)N5CCCC5)CC4)c4c(N)ncnc4n3C)cc2)C1=O (single isomer, unassigned) [Example 1137]",250 to 1000,100 to 250
"C=C1CCN(c2ccc(-c3c(C4=CC[C@@H](C(=O)N5CCCC5)CC4)c4c(C)ncnc4n3C)c(Cl)c2)C1=O (single isomer, unassigned) [Example 1140]",< 100,≤ 100

Structure (SMILES),IC50 [1] [nM],IC50 [2] [nM]
"C=C1CCN(c2ccc(-c3c(C4=CC[C@H](C(=O)N5CCCC5)CC4)c4c(C)ncnc4n3C)c(Cl)c2)C1=O (single isomer, unassigned) [Example 1141]",< 100,≤ 100
"C#Cc1cc(C)c(-c2c(C3=CC[C@@H](C(=O)N4CCCC4)CC3)c3c(N)ncnc3n2C)cn1 (single isomer, unassigned) [Example 1142]",< 100,≤ 100
"C#Cc1ncc(-c2c(C3=CC[C@@H](C(=O)N4CCCC4)CC3)c3c(C)ncnc3n2C)c(C)n1 (single isomer, unassigned) [Example 1166]",< 100,≤ 100
"C#Cc1ncc(-c2c(C3=CC[C@H](C(=O)N4CCCC4)CC3)c3c(C)ncnc3n2C)c(C)n1 (single isomer, unassigned) [Example 1169]",< 100,≤ 100
"C#Cc1cc(C)c(-c2c(C3=CC[C@@H](C(=O)N4CCCC4)CC3)c3c(C)ncnc3n2C)cn1 (single isomer, unassigned) [Example 1199]",< 100,≤ 100
"C#Cc1cc(C)c(-c2c(C3=CC[C@H](C(=O)N4CCCC4)CC3)c3c(C)ncnc3n2C)cn1 (single isomer, unassigned) [Example 1201]",< 100,≤ 100
"C#Cc1ccc(-c2c(C3=CC[C@H](C(=O)N4CCC[C@H]4COC)CC3)c3c(N)ncnc3n2C)c(C)n1 (single isomer, unassigned) [Example 1204]",< 100,≤ 100
"C#Cc1cc(C)c(-c2c(C3=CC[C@H](C(=O)N4CCC[C@H]4COC)CC3)c3c(N)ncnc3n2C)cn1 (single isomer, unassigned) [Example 1205]",250 to 1000,250 to 1000
"C#Cc1ccc(-c2c(C3=CC[C@H](C(=O)N4CCCC4)CC3)c3cncnc3n2C)c(C)n1 (single isomer, unassigned) [Example 1207]",1000 to 100000,1000 to 100000
"C#Cc1ccc(-c2c(C3=CC[C@@H](C(=O)N4CCCC4)CC3)c3cncnc3n2C)c(C)n1 (single isomer, unassigned) [Example 1208]",1000 to 100000,250 to 1000
"C#Cc1cc(C)c(-c2c(C3=CC[C@@H](C(=O)N4CCC[C@@H]4C)CC3)c3c(N)ncnc3n2C)cn1 (single isomer, unassigned) [Example 1210]",< 100,≤ 100
"C#Cc1ccc(-c2c(C3=CC[C@@H](C(=O)N4CCC[C@H]4COC)CC3)c3c(N)ncnc3n2C)c(C)n1 (single isomer, unassigned) [Example 1211]",< 100,100 to 250
"C#Cc1cc(C)c(-c2c(C3=CC[C@@H](C(=O)N4CCC[C@H]4COC)CC3)c3c(N)ncnc3n2C)cn1 (single isomer, unassigned) [Example 1212]",< 100,100 to 250
"C#Cc1cc(C)c(-c2c(C3=CC[C@@H](C(=O)N4CCC[C@H]4C)CC3)c3c(N)ncnc3n2C)cn1 (single isomer, unassigned) [Example 1219]",< 100,≤ 100
"C#Cc1ccc(-c2c(C3=CC[C@@H](C(=O)N4CCC[C@@H]4C#C)CC3)c3c(N)ncnc3n2C)c(C)n1 (single isomer, unassigned) [Example 1229]",< 100,≤ 100
"C#Cc1ccc(-c2c(C3=CC[C@@H](C(=O)N4CCC[C@H]4C#C)CC3)c3c(N)ncnc3n2C)c(C)n1 (single isomer, unassigned) [Example 1230]",< 100,≤ 100
"C#Cc1cc(C)c(-c2c(C3=CC[C@@H](C(=O)N4CCC[C@H]4CO)CC3)c3c(N)ncnc3n2C)cn1 (single isomer, unassigned) [Example 1231]",< 100,≤ 100
"C#Cc1ccc(-c2c(C3=CC[C@@H](C(=O)N4CCC[C@H]4C#N)CC3)c3c(N)ncnc3n2C)c(C)n1 (single isomer, unassigned) [Example 1235]",< 100,≤ 100
"C#Cc1cc(C)c(-c2c(C3=CC[C@H](C(=O)N4CCCC45COC5)CC3)c3c(N)ncnc3n2C)cn1 (single isomer, unassigned) [Example 1238]",250 to 1000,100 to 250
"C#Cc1cc(C)c(-c2c(C3=CC[C@@H](C(=O)N4CCCC45COC5)CC3)c3c(N)ncnc3n2C)cn1 (single isomer, unassigned) [Example 1239]",< 100,≤ 100
"C#Cc1cc(C)c(-c2c(C3=CC[C@H](C(=O)N4CCCC4=O)CC3)c3c(N)ncnc3n2C)cn1 (single isomer, unassigned) [Example 1240]",100 to 250,100 to 250
"C#Cc1cc(C)c(-c2c(C3=CC[C@@H](C(=O)N4CCCC4=O)CC3)c3c(N)ncnc3n2C)cn1 (single isomer, unassigned) [Example 1241]",< 100,≤ 100
"C#Cc1ncc(-c2c(C3=CC[C@@H](C(=O)N4CCCC4)CC3)c3c(N)ncnc3n2C)c(C)c1F (single isomer, unassigned) [Example 1329]",250 to 1000,100 to 250
